In US11505543B2, “4-oxo-3,4-dihydroquinazoline compounds as inhibitors of human immunodeficiency virus replication” (VIIV HEALTHCARE UK (NO.5) LIMITED, priority 2018, dated 2022):

Key:
[1] = Compound cytotoxicity, XTT-based colorimetric assay; format: cell-based; details: human, uninfected MT2 cells, day 4, XTT
Outline: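 Run under the antiviral-assay protocol but without virus. Viability was read on day 4 and CC50 values were derived from the readout.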

[2] = tested on: recombinant NL4-3 virus (nef section replaced with Renilla luciferase gene) in MT-2 cells; experiment: HIV cell culture assay (antiviral activity, luciferase readout); format: cell-based; details: Renilla, NL43, MT-2 cells infected for 4-5 days with recombinant NL4-3 Renilla luciferase virus, serial dilutions of compound
Outline: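 EC50 was derived by median-effect curve fitting of luciferase activity. The signal comes from MT-2 cells infected for 4–5 days with 293T-produced NL4-3 reporter virus, nef partly replaced by Renilla luciferase, in the presence of serially diluted compound.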

Row | Compound | CC50 at 4 day [1] [nM] | EC50 [2] [nM]
1 | COc1ccc(-c2ccc3c(=O)n(-c4ccc(Cl)c5c(NS(C)(=O)=O)nn(C)c45)c([C@H](Cc4cc(F)cc(F)c4)NC(=O)Cn4nc(C(F)F)c5c4C(F)(F)[C@@H]4C[C@H]54)nc3c2)c(CO)c1 [Example 179, N-((S)-1-(3-(4-chloro-1-methyl-3-(methylsulfonamido)-1H-indazol-7-yl)-7-(2-(hydroxymethyl)-4-methoxyphenyl)-4-oxo-3,4-dihydroquinazolin-2-yl)-2-(3,5-difluorophenyl)ethyl)-2-((3bS,4aR)-3-(difluoromethyl)-5,5-difluoro-3b,4,4a,5-tetrahydro-1H-cyclopropa[3,4]cyclopenta[1,2-c]pyrazol-1-yl)acetamide] | > 500 | 0.235
2 | Cn1nc(NS(C)(=O)=O)c2c(Cl)ccc(-n3c([C@H](Cc4cc(F)cc(F)c4)NC(=O)Cn4nc(C(F)F)c5c4C(F)(F)[C@@H]4C[C@H]54)nc4cc(-c5cc(F)ccc5CO)ccc4c3=O)c21 [Example 180, N-((S)-1-(3-(4-chloro-1-methyl-3-(methylsulfonamido)-1H-indazol-7-yl)-7-(5-fluoro-2-(hydroxymethyl)phenyl)-4-oxo-3,4-dihydroquinazolin-2-yl)-2-(3,5-difluorophenyl)ethyl)-2-((3bS,4aR)-3-(difluoromethyl)-5,5-difluoro-3b,4,4a,5-tetrahydro-1H-cyclopropa[3,4]cyclopenta[1,2-c]pyrazol-1-yl)acetamide] | > 500 | 0.2
3 | CC(C)Oc1ccccc1-c1ccc2c(=O)n(-c3ccc(Cl)c4c(NS(C)(=O)=O)nn(C)c34)c([C@H](Cc3cc(F)cc(F)c3)NC(=O)Cn3nc(C(F)F)c4c3C(F)(F)[C@@H]3C[C@H]43)nc2c1 [Example 181, N-((S)-1-(3-(4-chloro-1-methyl-3-(methylsulfonamido)-1H-indazol-7-yl)-7-(2-isopropoxyphenyl)-4-oxo-3,4-dihydroquinazolin-2-yl)-2-(3,5-difluorophenyl)ethyl)-2-((3bS,4aR)-3-(difluoromethyl)-5,5-difluoro-3b,4,4a,5-tetrahydro-1H-cyclopropa[3,4]cyclopenta[1,2-c]pyrazol-1-yl)acetamide] | > 500 | 0.71
4 | CS(=O)(=O)Nc1nn(CC(F)(F)F)c2c(-n3c([C@H](Cc4cc(F)cc(F)c4)NC(=O)Cn4nc(C(F)(F)F)c5c4C(F)(F)[C@@H]4C[C@H]54)nc4cc(-c5ccccc5F)ccc4c3=O)ccc(Cl)c12 [Example 182, N-((S)-1-(3-(4-chloro-3-(methylsulfonamido)-1-(2,2,2-trifluoroethyl)-1H-indazol-7-yl)-7-(2-fluorophenyl)-4-oxo-3,4-dihydroquinazolin-2-yl)-2-(3,5-difluorophenyl)ethyl)-2-((3bS,4aR)-5,5-difluoro-3-(trifluoromethyl)-3b,4,4a,5-tetrahydro-1H-cyclopropa[3,4]cyclopenta[1,2-c]pyrazol-1-yl)acetamide] | > 500 | 0.87
5 | CS(=O)(=O)Nc1nn(CC(F)F)c2c(-n3c([C@H](Cc4cc(F)cc(F)c4)NC(=O)Cn4nc(C(F)F)c5c4C(F)(F)[C@@H]4C[C@H]54)nc4cc(-c5ccccc5F)ccc4c3=O)ccc(Cl)c12 [Example 183, N-((S)-1-(3-(4-chloro-1-(2,2-difluoroethyl)-3-(methylsulfonamido)-1H-indazol-7-yl)-7-(2-fluorophenyl)-4-oxo-3,4-dihydroquinazolin-2-yl)-2-(3,5-difluorophenyl)ethyl)-2-((3bS,4aR)-3-(difluoromethyl)-5,5-difluoro-3b,4,4a,5-tetrahydro-1H-cyclopropa[3,4]cyclopenta[1,2-c]pyrazol-1-yl)acetamide] | > 500 | 0.39
6 | Cn1nc(NS(C)(=O)=O)c2c(Cl)ccc(-n3c([C@H](Cc4cc(F)cc(F)c4)NC(=O)Cn4nc(C(F)F)c5c4C(F)(F)[C@@H]4C[C@H]54)nc4cc(-c5ccc(Cl)cc5F)ccc4c3=O)c21 [Example 184, N-((S)-1-(3-(4-chloro-1-methyl-3-(methylsulfonamido)-1H-indazol-7-yl)-7-(4-chloro-2-fluorophenyl)-4-oxo-3,4-dihydroquinazolin-2-yl)-2-(3,5-difluorophenyl)ethyl)-2-((3bS,4aR)-3-(difluoromethyl)-5,5-difluoro-3b,4,4a,5-tetrahydro-1H-cyclopropa[3,4]cyclopenta[1,2-c]pyrazol-1-yl)acetamide] | > 500 | 1.8
7 | Cn1nc(NS(C)(=O)=O)c2c(Cl)ccc(-n3c([C@H](Cc4cc(F)cc(F)c4)NC(=O)Cn4nc(C(F)F)c5c4C(F)(F)[C@@H]4C[C@H]54)nc4cc(-c5c(F)cccc5F)ccc4c3=O)c21 [Example 185, N-((S)-1-(3-(4-chloro-1-methyl-3-(methylsulfonamido)-1H-indazol-7-yl)-7-(2,6-difluorophenyl)-4-oxo-3,4-dihydroquinazolin-2-yl)-2-(3,5-difluorophenyl)ethyl)-2-((3bS,4aR)-3-(difluoromethyl)-5,5-difluoro-3b,4,4a,5-tetrahydro-1H-cyclopropa[3,4]cyclopenta[1,2-c]pyrazol-1-yl)acetamide] | > 1000 | 0.62
8 | COc1ccccc1-c1ccc2c(=O)n(-c3ccc(Cl)c4c(NS(C)(=O)=O)nn(C)c34)c([C@H](Cc3cc(F)cc(F)c3)NC(=O)Cn3nc(C(F)F)c4c3C(F)(F)[C@@H]3C[C@H]43)nc2c1 [Example 186, N-((S)-1-(3-(4-chloro-1-methyl-3-(methylsulfonamido)-1H-indazol-7-yl)-7-(2-methoxyphenyl)-4-oxo-3,4-dihydroquinazolin-2-yl)-2-(3,5-difluorophenyl)ethyl)-2-((3bS,4aR)-3-(difluoromethyl)-5,5-difluoro-3b,4,4a,5-tetrahydro-1H-cyclopropa[3,4]cyclopenta[1,2-c]pyrazol-1-yl)acetamide] | > 1000 | 2.4
9 | Cn1nc(NS(C)(=O)=O)c2c(Cl)ccc(-n3c([C@H](Cc4cc(F)cc(F)c4)NC(=O)Cn4nc(C(F)F)c5c4C(F)(F)[C@@H]4C[C@H]54)nc4cc(-c5ccc(F)cc5F)ccc4c3=O)c21 [Example 187, N-((S)-1-(3-(4-chloro-1-methyl-3-(methylsulfonamido)-1H-indazol-7-yl)-7-(2,4-difluorophenyl)-4-oxo-3,4-dihydroquinazolin-2-yl)-2-(3,5-difluorophenyl)ethyl)-2-((3bS,4aR)-3-(difluoromethyl)-5,5-difluoro-3b,4,4a,5-tetrahydro-1H-cyclopropa[3,4]cyclopenta[1,2-c]pyrazol-1-yl)acetamide] | > 1000 | 0.28
10 | Cc1cc(F)ccc1-c1ccc2c(=O)n(-c3ccc(Cl)c4c(NS(C)(=O)=O)nn(C)c34)c([C@H](Cc3cc(F)cc(F)c3)NC(=O)Cn3nc(C(F)F)c4c3C(F)(F)[C@@H]3C[C@H]43)nc2c1 [Example 188, N-((S)-1-(3-(4-chloro-1-methyl-3-(methylsulfonamido)-1H-indazol-7-yl)-7-(4-fluoro-2-methylphenyl)-4-oxo-3,4-dihydroquinazolin-2-yl)-2-(3,5-difluorophenyl)ethyl)-2-((3bS,4aR)-3-(difluoromethyl)-5,5-difluoro-3b,4,4a,5-tetrahydro-1H-cyclopropa[3,4]cyclopenta[1,2-c]pyrazol-1-yl)acetamide] | > 1000 | 1.7
